Entries after “also recorded” stand apart in the source; their conditions may differ.
Legend:
[1] = test system: draining lymph node CD8+ T cells; assay: Seahorse OCR/ECAR of draining lymph node CD8+ T cells of treated mice; format: in vivo, C57BL/6 mice; conditions: combined therapy compared to PD-1 inhibition alone
Method: FIG. 2-1 a) Treated mice were analyzed for draining lymph nodes and the inside of tumor. Briefly, draining lymph nodes of mice were isolated 13 days after tumor inoculation, and stained with antibodies to CD8 and Sca-1. FACS diagram and percentages of Sca-1^+ cells in CD8^+ T cells are shown. b) CD8^+ T cells in isolated draining lymph nodes were stimulated with CD3/CD28 antibody beads. After 24 hours, cell proliferation was examined by means of ^3H uptake. At the same time, IFN-γ concentration in culture supernatant was measured. c) Tumor from the same mice as described above was treated with collagenase. Then, expression rates of PD-1 and Tim3 in tumor-infiltrating CD8^+ T cells were analyzed. d) Oxygen consumption rate (OCR) and extracellular acidification rate (ECAR) of draining lymph node CD8^+ T cells were measured with a Seahorse analyzer (N=3 wells). For statistical analysis, ANOVA was used. * p<0.05, ** p<0.01, *** p<0.001, **** p<0.0001.
Oxygen consumption rates were measured using an XF96 Extracellular Flux Analyzer (Seahorse Bioscience). CD8^+ T cells (4×10^5) per well were seeded in a determined XF96 plate. The four chemical modulators of mitochondrial oxidative phosphorylation, which came with an XF Cell Mito Stress Test Kit (Seahorse Bioscience), were added to the module sequentially. In brief, basal OCR measurement was performed […] sequential addition of oligomycin, FCCP, and rotenone/antimycin A. SRC and ATP production rates were calculated by the following formulas:
SRC (pmo; 02/min)=OCRmaximal−OCRbasal
mitoATP (pmol ATP/min)=(OCRbasal−OCRoligo)×5.5.

[2] = test system: draining lymph node CD8+ T cells; assay: Mitochondria-related proteomics of draining lymph node CD8+ T cells of treated mice; format: in vivo
Method: T cells were prepared by two methods. For in vivo analysis, 13 days after tumor inoculation and 3 days after the start of therapy, draining lymph nodes from 5 mice were pooled, followed by isolation of CD8^+ T cells. From the isolated CD8^+ T cells, three samples each consisting of 1×10^6 cells were prepared and used for analysis. For in vitro experiments, 2×10^5 CD8^+ T cells stimulated with 0.2 μM spermidine for 1 hour were used. For mass spectrometry analysis, a Tandem Mass Tag (TMT) system or a Data Independent Acquisition (DIA) system was used. In the analysis of in vivo CD8^+ T cells (FIG. 3), those proteins which increased by 1.5-fold or more or decreased by 0.6-fold or less were extracted.

CD44 low CD8+ T cells = assay: PI and Annexin apoptosis assay, CD44 low cells; format: cell-based, mice; conditions: in the presence of SPD 0.2 μM
Method: FIG. 4 CD8^+ T cells were isolated from the spleen of mice without tumor inoculation, and further isolated into CD44^+ (CD44 high) and CD44^− (CD44 low) cell populations. a) CD44 low cells were simulated with CD3/CD28 antibody beads and SPD (0.2 μM). After 30 minutes, 1 hour, 2 hours and 72 hours, OCR was measured with a Seahorse analyzer. b) At the same time, total ATP production and glycolytic pathway-derived or mitochondrial activity-derived ATP production were calculated at 30-minute, 1-hour and 2-hour. c) CD44 low cells (2×10^5 cells) were stimulated with CD3/CD28 antibody beads and SPD (0.2 μM). After 24 hours, cell proliferation was examined by means of 3H uptake. d) Spare respiratory capacity (SRC) was calculated from the OCR measurement after 72 hours in a), and results with and without SPD were compared. e) CD44 low cells were stimulated with CD3/CD28 antibody beads and SPD (0.2 μM). After 24 hours, frequencies between apoptotic and viable cells were calculated by PI and Annexin staining. f-j) CD44 high cells were analyzed under the same conditions and by the same methods as described in a-e) above. […] All flow cytometry experiments were performed on FACS Canto II (BD Biosciences) and analyzed using FlowJo software (FLOWJO, LLC). […]

CD8+ T cells = assay: Proliferation (3H uptake) of spleen CD8+ T cells of treated aged mice; format: in vivo; conditions: 56-week old mice; SPD combination group; 20 hours CD3/CD28, 3H uptake
Method: FIG. 7 MC38 cells (5×10^5) were intradermally inoculated into 56-week old mice, which were treated along with the treatment schedule described in FIG. 1. PD-L1 antibody (2 mg/kg) and SPD (2 mg/kg) were used. a) Tumor growth curve and survival curve are shown. b) The frequency of CD8^+ T cells among lymphocytes infiltrating into tumor (in CD45^+ gate) and the absolute number of CD8^+ T cells per mg tumor 13 days after tumor inoculation are shown. c) CD8^+ T cells were isolated from spleen cells on the same schedule as b) and cultured for 20 hours under the stimulation with CD3/CD28. Cell proliferation was examined by means of ^3H uptake. d) CD8^+ T cells were isolated from draining lymph nodes on the same schedule as b) and glycolytic pathway-derived or mitochondrial metabolism-derived ATP production was calculated by Seahorse. e) Spare respiratory capacity (SRC) was also calculated in the experiment (d).
It is known from mouse model experiments that the effect of PD-1 inhibitory antibody therapy decreases in aged mice due to their decreased immunity. […] CD8^+ T cells were isolated from draining lymph nodes 13 days after tumor inoculation and glycolytic pathway-derived or mitochondrial metabolism-derived ATP production was calculated by Seahorse. Spare respiratory capacity (SRC) was also calculated. […]

SMILES: NCCCCNCCCN [SPD, spermidine]
- glycolysis (ECAR) of CD8+ T cells [1]: increased
- oxygen consumption (OCR) of CD8+ T cells [1]: increased
- spare respiratory capacity (SRC) of CD8+ T cells [1]: increased
- levels of electron transport chain related proteins (Cytochrome, NADH dehydrogenase, ATPase) ([2]; combined therapy compared to PD-1 inhibition alone): remarkably increased
- number of mitochondria-related proteins whose level changed significantly ([2]; out of 203 proteins, combined therapy compared to PD-1 inhibition alone): 184
- pathway analysis: proteins associated with oxidative phosphorylation and metabolic pathways such as glycolysis ([2]; proteins increased under combined therapy): occupied top positions
- apoptotic cells (CD44 low CD8+ T cells): decreased
- viable cells (CD44 low CD8+ T cells): increased; also recorded: significantly high
- proliferative activation of spleen CD8+ T cells (CD8+ T cells): enhanced

Reference: US20220401385A1, “Combination Therapy Based on PD-1 Signaling Inhibitors” (Kyoto University, priority 2019, published 2022)
